Reference: PMC4139342, “Pharmacokinetics-Pharmacodynamics Analysis of Bicyclic 4-Nitroimidazole Analogs in a Murine Model of Tuberculosis” (PLoS ONE, 2014)

Tested on: H37Rv::F420-mutants, F420 deficient (FbiC mutant)
Type: cell-based, M. tuberculosis

Compound | H37Rv::F420-mutants MIC99 [µg/mL]
O=[N+]([O-])c1cn2c(n1)OC[C@@H](NCc1ccc(OC(F)(F)F)c(O)c1)C2 [NI-147] | >10
O=[N+]([O-])c1cn2c(n1)OC[C@@H](NCc1ccc(OC(F)(F)F)c(F)c1)C2 [NI-136] | >10
O=[N+]([O-])c1cn2c(n1)OC[C@@H](NCc1ccc(OC(F)(F)F)c(Cl)c1)C2 [NI-135] | >10
O=C(CO[C@@H]1COc2nc([N+](=O)[O-])cn2C1)N1CCN(c2ccc(C(F)(F)F)cn2)CC1 [NI-644] | >10
CC[C@@H]1Oc2nc([N+](=O)[O-])cn2C[C@@H]1NCc1ccc(OC(F)(F)F)cc1 [NI-269] | >10
O=[N+]([O-])c1cn2c(n1)OC[C@@H](OCc1ccc(OC(F)(F)F)cc1)C2 [PA-824, (6S)-2-nitro-6-{[4-(trifluoromethoxy)benzyl]oxy}-6,7-dihydro-5H-imidazo[2,1-b][1, 3]oxazine, reference compound] | >10
O=C(CO[C@@H]1COc2nc([N+](=O)[O-])cn2C1)N1CCN(c2ccc(OC(F)(F)F)cc2)CC1 [NI-622] | >10
CC[C@H]1Oc2nc([N+](=O)[O-])cn2C[C@@H]1NCc1ccc(OC(F)(F)F)cc1 [NI-182] | >10
O=[N+]([O-])c1cn2c(n1)OC[C@@H](NCc1ccc(OC(F)(F)F)cc1)C2 [Amino-824, ((s)-2-nitro-6,7-dihydro-5H-imidazo[2,1-b][1,3]oxazin-6-yl)-(4-trifluoromethoxybenzyl)amine] | >10
CC[C@@H]1Oc2nc([N+](=O)[O-])cn2C[C@@H]1OCc1ccc(OC(F)(F)F)cc1 [NI-145] | >10
O=[N+]([O-])c1cn2c(n1)OC1(CC1)C(OCc1ccc(OC(F)(F)F)cc1)C2 (centres unmarked) [NI-302] | >10
CC[C@H]1Oc2nc([N+](=O)[O-])cn2C[C@@H]1NCc1ccc(-c2ccc(OC(F)(F)F)cc2)cc1 [NI-297] | >10
CC[C@@H]1Oc2nc([N+](=O)[O-])cn2C[C@@H]1NCc1ccc(OC(F)(F)F)c(F)c1 [NI-176] | >10
O=[N+]([O-])c1cn2c(n1)OC[C@@H](NCCc1ccc(OC(F)(F)F)cc1)C2 [AminoEthyl-824] | >10
